Test results reported in the supplement of paper PMC10307832.

Legend:
Test in all cases: relative viability (nuclei count vs DMSO), 5 days (fraction); higher = more cells survive
[1] = compound: O=c1[nH]cc(F)c(=O)[nH]1 [5-Fluorouracil] + O=C(CCCCCCC(=O)Nc1ccccc1)NO [Vorinostat] (partner 1 µM)
Procedure, shortened: (§1)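 The day after seeding in 1536-well plates, lung cancer cell lines were treated by pin tool with a single drug, or with a fixed anchor-drug dose together with five library-drug doses (not always all listed) in √10 steps. After 5 days, a combined fix-and-stain solution (final 0.05% Triton X-100, 1% formaldehyde, 1 ug/ml Hoechst) was added. Nuclei counted on 4× images gave relative viability as treated counts over vehicle counts, reported as the median of duplicate plates.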

Sulindac + Luminespib = compound: CC1=C(CC(=O)O)c2cc(F)ccc2/C1=C\c1ccc([S+](C)[O-])cc1 [Sulindac] + CCNC(=O)c1noc(-c2cc(C(C)C)c(O)cc2O)c1-c1ccc(CN2CCOCC2)cc1 [Luminespib] (partner 0.01 µM)
Procedure, shortened: as §1

Staurosporine + OSI-027 = compound: CN[C@@H]1C[C@H]2O[C@@](C)([C@@H]1OC)n1c3ccccc3c3c4c(c5c6ccccc6n2c5c31)C(=O)NC4 [Staurosporine] + COc1cccc2cc(-c3nc([C@H]4CC[C@H](C(=O)O)CC4)n4ncnc(N)c34)[nH]c12 [OSI-027] (partner 0.5 µM)
Procedure, shortened: as §1

Sulindac + Crizotinib = compound: CC1=C(CC(=O)O)c2cc(F)ccc2/C1=C\c1ccc([S+](C)[O-])cc1 [Sulindac] + C[C@@H](Oc1cc(-c2cnn(C3CCNCC3)c2)cnc1N)c1c(Cl)ccc(F)c1Cl [Crizotinib] (partner 1 µM)
Procedure, shortened: as §1

Cell Line | relative viability ([1]; first compound 0.02 µM) | relative viability ([1]; first compound 0.2 µM) | relative viability ([1]; first compound 0.6325 µM) | relative viability ([1]; first compound 2 µM) | relative viability (Sulindac + Luminespib; first compound 0.08 µM) | relative viability (Sulindac + Luminespib; first compound 0.253 µM) | relative viability (Sulindac + Luminespib; first compound 0.8 µM) | relative viability (Sulindac + Luminespib; first compound 2.53 µM) | relative viability (Sulindac + Luminespib; first compound 8 µM) | relative viability (Staurosporine + OSI-027; first compound 0.005 µM) | relative viability (Staurosporine + OSI-027; first compound 0.01581 µM) | relative viability (Staurosporine + OSI-027; first compound 0.05 µM) | relative viability (Staurosporine + OSI-027; first compound 0.1581 µM) | relative viability (Staurosporine + OSI-027; first compound 0.5 µM) | relative viability (Sulindac + Crizotinib; first compound 0.08 µM) | relative viability (Sulindac + Crizotinib; first compound 0.253 µM) | relative viability (Sulindac + Crizotinib; first compound 0.8 µM) | relative viability (Sulindac + Crizotinib; first compound 2.53 µM) | relative viability (Sulindac + Crizotinib; first compound 8 µM)
RERF-LC-KJ | 0.741 | 0.736 | 0.725 | 0.56 | 1.06 | 1.47 | 1.18 | 1.23 | 1.64 | 0.475 | 0.3 | 0.234 | 0.234 | 0.181 | 0.816 | 0.903 | 0.853 | 0.891 | 0.914
SK-LU-1 | 0.705 | 0.885 | 0.744 | 0.681 | 0.193 | 0.204 | 0.175 | 0.202 | 0.215 | 0.214 | 0.0957 | – | 0.113 | 0.0858 | 0.844 | 1.22 | 0.781 | 0.975 | 1.26
SK-MES-1 | 1.2 | 0.404 | 0.306 | 0.302 | 0.875 | 0.985 | 0.78 | 0.735 | 0.935 | 0.202 | 0.18 | 0.147 | 0.134 | 0.106 | 1.14 | 1.09 | 0.822 | 1.09 | 1.14
SW 1573 | 0.873 | 0.843 | 0.778 | 0.466 | 0.197 | 0.25 | 0.242 | 0.293 | 0.284 | 0.161 | 0.11 | 0.085 | 0.0637 | 0.0578 | 0.825 | 0.742 | 0.766 | 0.869 | 0.867
